Experimental data as given in the NIST ThermoML archive (doi:10.1016/j.jct.2014.06.029).
Numbers after ± are expanded uncertainties.

Columns and labels:
[1] = refractive index (Na D-line) (dimensionless); mn = molality of the nth substance listed, in mol/kg; settings: 293.15 K; 101 kPa; Liquid; Standard Abbe refractometry; m1 = 0.02
[2] = 298 K; 101.33 kPa; Crystal; X-ray diffraction

Compound | refractive index [1] | mass density [2] [kg/m3]
CC(=O)C(=O)[O-].[Na+] [sodium pyruvate] + O | 1.3308 ± 0.0007 | 
CC(=O)C(=O)[O-].[Na+] [sodium pyruvate] |  | 1749 ± 9
